Assay results as given in the supplement of paper PMC10307832.

What was measured:
Assay in all cases: relative viability (nuclei count vs DMSO), 5 days (fraction); higher = more cells survive
Avagacestat + Decitabine = compound: NC(=O)[C@@H](CCC(F)(F)F)N(Cc1ccc(-c2ncon2)cc1F)S(=O)(=O)c1ccc(Cl)cc1 [Avagacestat] + Nc1ncn([C@H]2C[C@H](O)[C@@H](CO)O2)c(=O)n1 [Decitabine] (partner 2 µM)
In short: (§1)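 The day after seeding in 1536-well plates, lung cancer cell lines were treated by pin tool with a single drug, or with a fixed anchor-drug dose together with five library-drug doses (not always all listed) in √10 steps. After 5 days, a combined fix-and-stain solution (final 0.05% Triton X-100, 1% formaldehyde, 1 ug/ml Hoechst) was added. Nuclei counted on 4× images gave relative viability as treated counts over vehicle counts, reported as the median of duplicate plates.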

Avagacestat + AZD7762 = compound: NC(=O)[C@@H](CCC(F)(F)F)N(Cc1ccc(-c2ncon2)cc1F)S(=O)(=O)c1ccc(Cl)cc1 [Avagacestat] + NC(=O)Nc1cc(-c2cccc(F)c2)sc1C(=O)N[C@H]1CCCNC1 [AZD7762] (partner 0.2 µM)
In short: as §1

Avagacestat + Bortezomib = compound: NC(=O)[C@@H](CCC(F)(F)F)N(Cc1ccc(-c2ncon2)cc1F)S(=O)(=O)c1ccc(Cl)cc1 [Avagacestat] + CC(C)C[C@H](NC(=O)[C@H](Cc1ccccc1)NC(=O)c1cnccn1)B(O)O [Bortezomib] (partner 0.002 µM)
In short: as §1

Avagacestat + Tozasertib = compound: NC(=O)[C@@H](CCC(F)(F)F)N(Cc1ccc(-c2ncon2)cc1F)S(=O)(=O)c1ccc(Cl)cc1 [Avagacestat] + Cc1cc(Nc2cc(N3CCN(C)CC3)nc(Sc3ccc(NC(=O)C4CC4)cc3)n2)n[nH]1 [Tozasertib] (partner 0.1 µM)
In short: as §1

Cell Line	relative viability (Avagacestat + Decitabine; first compound 0.08 µM)	relative viability (Avagacestat + Decitabine; first compound 0.253 µM)	relative viability (Avagacestat + Decitabine; first compound 0.8 µM)	relative viability (Avagacestat + Decitabine; first compound 2.53 µM)	relative viability (Avagacestat + Decitabine; first compound 8 µM)	relative viability (Avagacestat + AZD7762; first compound 0.08 µM)	relative viability (Avagacestat + AZD7762; first compound 0.253 µM)	relative viability (Avagacestat + AZD7762; first compound 0.8 µM)	relative viability (Avagacestat + AZD7762; first compound 2.53 µM)	relative viability (Avagacestat + AZD7762; first compound 8 µM)	relative viability (Avagacestat + Bortezomib; first compound 0.08 µM)	relative viability (Avagacestat + Bortezomib; first compound 0.253 µM)	relative viability (Avagacestat + Bortezomib; first compound 0.8 µM)	relative viability (Avagacestat + Bortezomib; first compound 2.53 µM)	relative viability (Avagacestat + Bortezomib; first compound 8 µM)	relative viability (Avagacestat + Tozasertib; first compound 0.08 µM)	relative viability (Avagacestat + Tozasertib; first compound 0.253 µM)	relative viability (Avagacestat + Tozasertib; first compound 0.8 µM)	relative viability (Avagacestat + Tozasertib; first compound 2.53 µM)	relative viability (Avagacestat + Tozasertib; first compound 8 µM)
LOU-NH91	0.868	0.812	0.84	0.807	0.79	0.828	0.838	0.864	0.673	0.736	0.541	0.509	0.51	0.478	0.485	0.621	0.63	0.648	0.609	0.624
HARA	0.4	0.377	0.621	0.435	0.448	0.303	0.276	0.332	0.24	0.184	1.71	1.09	1.17	1.16	1.07	0.0944	0.0986	0.0937	0.0995	0.145
HCC-827	0.328	0.313	0.327	0.329	0.296	0.193	0.188	0.216	0.161	0.188	1.09	1.13	1.13	1.05	1.12	0.452	0.434	0.506	0.381	0.462
NCI-H1703						0.123	0.143	0.115	0.112	0.124	0.403	0.422	0.272	0.322	0.318					
NCI-H2405	0.758	0.703	0.692	0.673	0.684	0.895	0.839	0.73	0.701	0.754	1.06	1.03	0.999	0.919	0.94	0.718	0.751	0.747	0.714	0.661
PC-3 [JPC-3]	0.857	0.808	0.824	0.789	0.87	0.983	0.972	1.19	0.842	0.775	0.789	1.01	0.924	0.902	0.914	1.01	0.99	1.08	0.943	0.826
NCI-H2085	0.531	0.609	0.639	0.572	0.585	1.07	1.13	1.09	1.08	0.794	1.13	1.21	1.14	1.13	0.992	0.849	0.894	0.842	0.803	0.829
201T	0.861	0.885	0.888	0.801	0.767	0.65	0.712	0.607	0.56	0.587	1.1	1.08	1.2	1.11	1.09	0.967	1.06	0.922	0.843	0.9
NCI-H1975	0.371	0.355	0.425	0.341	0.412	0.718	0.712	0.853	0.649	0.642	0.382	0.343	0.415	0.327	0.318	1.01	0.945	0.928	0.603	0.367
NCI-H2023	0.255	0.257	0.288	0.221	0.218						1.13	1.1	1.08	0.886	0.808	0.513	0.479	0.396	0.289	0.254
BEN	0.734	0.712	0.824	0.732	0.685	0.706	0.676	0.744	0.79	0.644	0.936	0.789	0.954	0.533	0.775	0.512	0.504	0.526	0.449	0.49
RERF-LC-KJ	0.686	0.705	0.622	0.686	0.645	1.02	1.14	1.24	0.929	0.751	1.17	1.37	1.16	1.04	1.02	0.5	0.471	0.466	0.418	0.379
SK-MES-1	0.367	0.415	0.373	0.329	0.311											1.13	1.23	1.07	0.874	0.783
PC-14	0.219	0.244	0.218	0.272	0.244	0.53	0.568	0.581	0.39	0.392	1.12	1.12	0.848	0.785	0.77	0.733	0.859	0.925	0.692	0.633
NCI-H1437	0.643	0.668	0.654	0.598	0.628	1.16	1.15	1.02	1.09	0.906	0.602	0.69	0.519	0.379	0.282	0.416	0.457	0.41	0.377	0.307
NCI-H1993	0.618	0.583	0.618	0.611	0.564	0.956	0.61	0.741	0.731	0.6	1.37	1.35	1.47	1.27	1.3	0.604	0.594	0.529	0.541	0.539
LK-2	0.413	0.269	0.256		0.291	0.408	0.384	0.41	0.4	0.291						0.188	0.147	0.185	0.183	0.172
IA-LM											1.39	1.28	0.823	0.855	1.25					
